Experimental data published in patent US7767659B2, “Synthesis of naturally occurring ecteinascidins and related compounds” (Pharma Mar, S.A., priority 2002, dated 2010).

How the values were obtained:
A-549 = experiment: cells; settings: Homo sapiens, A549, 48 h; for GI50: read-out: GI50 A549; for CC50: read-out: LC50 A549; for IC (TGI): read-out: TGI A549
Outline: (§1)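 Colorimetric SRB read (490 nm) on triplicate wells after 48 h at 37 °C, 5% CO2. Dose range 10 to 10^−8 μg/ml; 5×10^3 cells/well pre-attached 18 h.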

HT-29 = experiment: cells; settings: Homo sapiens, HT-29, 48 h; for GI50: read-out: GI50 HT29; for CC50: read-out: LC50 HT29; for IC (TGI): read-out: TGI HT29
Outline: as §1

LoVo = experiment: cells; settings: Homo sapiens, LoVo, 48 h; for GI50: read-out: GI50 LOVO; for CC50: read-out: LC50 LOVO; for IC (TGI): read-out: TGI LOVO
Outline: as §1

DU-145 = experiment: Inhibition of cells growth by colorimetric assay (SRB); settings: Homo sapiens, DU-145, 48 h; for GI50: read-out: GI50 DU145; for CC50: read-out: LC50 DU145; for IC (TGI): read-out: TGI DU145
Outline: as §1

HeLa-APL = experiment: as above; settings: Homo sapiens, 48 h; for GI50: read-out: GI50 HELA-APL; for CC50: read-out: LC50 HELA-APL; for IC (TGI): read-out: TGI HELA-APL
Outline: as §1

HeLa = experiment: as above; settings: Homo sapiens, HeLa, 48 h; for GI50: read-out: GI50 HELA; for CC50: read-out: LC50 HELA; for IC (TGI): read-out: TGI HELA
Outline: as §1

IGROV-1 = experiment: as above; settings: Homo sapiens, IGROV-1, 48 h; for GI50: read-out: GI50 IGROV; for CC50: read-out: LC50 IGROV; for IC (TGI): read-out: TGI IGROV
Outline: as §1

IGROV-ET = experiment: as above; settings: Homo sapiens, 48 h; for GI50: read-out: GI50 IGROV-ET; for CC50: read-out: LC50 IGROV-ET; for IC (TGI): read-out: TGI IGROV-ET
Outline: as §1

K-562 = experiment: as above; settings: Homo sapiens, K562, 48 h; for GI50: read-out: GI50 K562; for CC50: read-out: LC50 K562; for IC (TGI): read-out: TGI K562
Outline: as §1

LNCaP = experiment: as above; settings: Homo sapiens, LNCaP, 48 h; for GI50: read-out: GI50 LNCAP; for CC50: read-out: LC50 LNCAP; for IC (TGI): read-out: TGI LNCAP
Outline: as §1

LoVo-Dox = experiment: as above; settings: Homo sapiens, 48 h; for GI50: read-out: GI50 LOVO-DOX; for CC50: read-out: LC50 LOVO-DOX; for IC (TGI): read-out: TGI LOVO-DOX
Outline: as §1

PANC-1 = experiment: as above; settings: Homo sapiens, PANC-1, 48 h; for GI50: read-out: GI50 PANC-1; for CC50: read-out: LC50 PANC-1; for IC (TGI): read-out: TGI PANC-1
Outline: as §1

SK-BR-3 = experiment: as above; settings: Homo sapiens, SK-BR-3, 48 h; for GI50: read-out: GI50 SK-BR3; for CC50: read-out: LC50 SK-BR3; for IC (TGI): read-out: TGI SK-BR3
Outline: as §1

SK-MEL-28 = experiment: as above; settings: Homo sapiens, SK-MEL-28, 48 h; for GI50: read-out: GI50 MEL-28; for CC50: read-out: LC50 MEL-28; for IC (TGI): read-out: TGI MEL-28
Outline: as §1

Compound: COc1c(C)cc2c(c1O)[C@H]1N[C@@H](C2)[C@H](C#N)N2C1[C@@H]1SCC(NC(=O)C(F)(F)F)C(=O)OC[C@H]2c2c3c(c(C)c(OC(C)=O)c21)OCO3 (stereo partly drawn) [compound 31]
- GI50 (A-549): 0.00183 µM
- CC50 (A-549): 0.0921 µM
- IC (TGI) (A-549): 0.00597 µM
- GI50 (HT-29): 0.00197 µM
- CC50 (HT-29): 3.68 µM
- IC (TGI) (HT-29): 0.0162 µM
- GI50 (LoVo): 0.000688 µM
- CC50 (LoVo): 1.82 µM
- IC (TGI) (LoVo): 0.00349 µM
- GI50 (DU-145): 0.000444 µM
- CC50 (DU-145): 2.23 µM
- IC (TGI) (DU-145): 0.000951 µM
- GI50 (HeLa-APL): 0.000576 µM
- CC50 (HeLa-APL): 0.00996 µM
- IC (TGI) (HeLa-APL): 0.00196 µM
- GI50 (HeLa): 0.000678 µM
- CC50 (HeLa): 0.0112 µM
- IC (TGI) (HeLa): 0.00204 µM
- GI50 (IGROV-1): 0.000413 µM
- CC50 (IGROV-1): 0.0126 µM
- IC (TGI) (IGROV-1): 0.00107 µM
- GI50 (IGROV-ET): 0.00291 µM
- CC50 (IGROV-ET): 2.09 µM
- IC (TGI) (IGROV-ET): 0.00749 µM
- GI50 (K-562): 0.000226 µM
- CC50 (K-562): 0.126 µM
- IC (TGI) (K-562): 0.000792 µM
- GI50 (LNCaP): 0.000419 µM
- CC50 (LNCaP): 0.0907 µM
- IC (TGI) (LNCaP): 0.0163 µM
- GI50 (LoVo-Dox): 0.00905 µM
- CC50 (LoVo-Dox): 7.21 µM
- IC (TGI) (LoVo-Dox): 1.48 µM
- GI50 (PANC-1): 0.000807 µM
- CC50 (PANC-1): 1.77 µM
- IC (TGI) (PANC-1): 0.00668 µM
- GI50 (SK-BR-3): 0.000396 µM
- CC50 (SK-BR-3): 0.0607 µM
- IC (TGI) (SK-BR-3): 0.00122 µM
- GI50 (SK-MEL-28): 0.000832 µM
- CC50 (SK-MEL-28): 0.00806 µM
- IC (TGI) (SK-MEL-28): 0.00254 µM

Compound: C=CCN1[C@@H]2c3c(cc(C)c(OC)c3OC(=O)/C=C/c3ccccc3)C[C@H]1[C@H](C#N)N1C2[C@@H]2SCC(NC(=O)C(F)(F)F)C(=O)OC[C@H]1c1c3c(c(C)c(OC(C)=O)c12)OCO3 (stereo partly drawn) [compound 29]
- GI50 (A-549): 4.8 µM
- CC50 (A-549): 11.4 µM
- IC (TGI) (A-549): 11.4 µM
- GI50 (HT-29): 11.4 µM
- CC50 (HT-29): 11.4 µM
- IC (TGI) (HT-29): 11.4 µM
- GI50 (LoVo): 2.85 µM
- CC50 (LoVo): 11.4 µM
- IC (TGI) (LoVo): 11.4 µM
- GI50 (DU-145): 2.3 µM
- CC50 (DU-145): 11.4 µM
- IC (TGI) (DU-145): 7.93 µM
- GI50 (HeLa-APL): 4.29 µM
- CC50 (HeLa-APL): 11.4 µM
- GI50 (HeLa): 6.3 µM
- CC50 (HeLa): 11.4 µM
- IC (TGI) (HeLa): 11.4 µM
- GI50 (IGROV-1): 2.19 µM
- CC50 (IGROV-1): 11.4 µM
- IC (TGI) (IGROV-1): 11.4 µM
- GI50 (IGROV-ET): 3.12 µM
- CC50 (IGROV-ET): 11.4 µM
- IC (TGI) (IGROV-ET): 11.4 µM
- GI50 (K-562): 0.629 µM
- CC50 (K-562): 11.4 µM
- IC (TGI) (K-562): 3.9 µM
- GI50 (LNCaP): 0.878 µM
- CC50 (LNCaP): 11.4 µM
- IC (TGI) (LNCaP): 6.07 µM
- GI50 (LoVo-Dox): 4.09 µM
- CC50 (LoVo-Dox): 11.4 µM
- IC (TGI) (LoVo-Dox): 11.4 µM
- GI50 (PANC-1): 6.55 µM
- CC50 (PANC-1): 11.4 µM
- IC (TGI) (PANC-1): 11.4 µM
- GI50 (SK-BR-3): 0.889 µM
- CC50 (SK-BR-3): 11.4 µM
- IC (TGI) (SK-BR-3): 7.98 µM
- GI50 (SK-MEL-28): 3.74 µM
- CC50 (SK-MEL-28): 11.4 µM
- IC (TGI) (SK-MEL-28): 11.4 µM

Compound: C=CCN1[C@@H]2c3c(cc(C)c(OC)c3O)C[C@H]1[C@H](C#N)N1C2[C@@H]2SCC(NC(=O)CCCCCCCCCCCCCCC)C(=O)OC[C@H]1c1c3c(c(C)c(OC(C)=O)c12)OCO3 (stereo partly drawn) [compound 26]
- GI50 (A-549): 11.6 µM
- CC50 (A-549): 11.6 µM
- IC (TGI) (A-549): 11.6 µM
- GI50 (HT-29): 11.6 µM
- CC50 (HT-29): 11.6 µM
- IC (TGI) (HT-29): 11.6 µM
- GI50 (LoVo): 11.6 µM
- CC50 (LoVo): 11.6 µM
- IC (TGI) (LoVo): 11.6 µM
- GI50 (DU-145): 11.6 µM
- CC50 (DU-145): 11.6 µM
- IC (TGI) (DU-145): 11.6 µM
- CC50 (HeLa-APL): 11.6 µM
- GI50 (HeLa): 11.6 µM
- CC50 (HeLa): 11.6 µM
- IC (TGI) (HeLa): 11.6 µM
- GI50 (IGROV-1): 6.84 µM
- CC50 (IGROV-1): 11.6 µM
- IC (TGI) (IGROV-1): 11.6 µM
- GI50 (IGROV-ET): 11.6 µM
- CC50 (IGROV-ET): 11.6 µM
- IC (TGI) (IGROV-ET): 11.6 µM
- GI50 (K-562): 2.3 µM
- CC50 (K-562): 10.6 µM
- IC (TGI) (K-562): 4.94 µM
- GI50 (LNCaP): 3.82 µM
- CC50 (LNCaP): 11.6 µM
- IC (TGI) (LNCaP): 11.6 µM
- GI50 (LoVo-Dox): 11.6 µM
- CC50 (LoVo-Dox): 11.6 µM
- IC (TGI) (LoVo-Dox): 11.6 µM
- GI50 (PANC-1): 11.6 µM
- CC50 (PANC-1): 11.6 µM
- IC (TGI) (PANC-1): 11.6 µM
- GI50 (SK-BR-3): 4.23 µM
- CC50 (SK-BR-3): 11.6 µM
- IC (TGI) (SK-BR-3): 9.2 µM
- GI50 (SK-MEL-28): 11.6 µM
- CC50 (SK-MEL-28): 11.6 µM
- IC (TGI) (SK-MEL-28): 11.6 µM

Compound: C=CCN1[C@@H]2c3c(cc(C)c(OC)c3O)C[C@H]1[C@H](C#N)N1C2[C@@H]2SCC(NC(=O)C(F)(F)F)C(=O)OC[C@H]1c1c3c(c(C)c(OC(C)=O)c12)OCO3 (stereo partly drawn) [compound 25]
- GI50 (A-549): 0.927 µM
- CC50 (A-549): 11.5 µM
- IC (TGI) (A-549): 3.45 µM
- GI50 (HT-29): 1.64 µM
- CC50 (HT-29): 13.9 µM
- IC (TGI) (HT-29): 8.57 µM
- GI50 (LoVo): 0.938 µM
- CC50 (LoVo): 9.27 µM
- IC (TGI) (LoVo): 3.16 µM
- GI50 (DU-145): 0.861 µM
- CC50 (DU-145): 6.57 µM
- IC (TGI) (DU-145): 2.2 µM
- GI50 (HeLa-APL): 0.939 µM
- CC50 (HeLa-APL): 7.69 µM
- IC (TGI) (HeLa-APL): 2.78 µM
- GI50 (HeLa): 1.5 µM
- CC50 (HeLa): 8.11 µM
- IC (TGI) (HeLa): 3.48 µM
- GI50 (IGROV-1): 0.66 µM
- CC50 (IGROV-1): 8.01 µM
- IC (TGI) (IGROV-1): 1.43 µM
- GI50 (IGROV-ET): 1.61 µM
- CC50 (IGROV-ET): 12.1 µM
- IC (TGI) (IGROV-ET): 4.41 µM
- GI50 (K-562): 0.316 µM
- CC50 (K-562): 3.78 µM
- IC (TGI) (K-562): 0.775 µM
- GI50 (LNCaP): 0.323 µM
- CC50 (LNCaP): 2.55 µM
- IC (TGI) (LNCaP): 0.757 µM
- GI50 (LoVo-Dox): 0.904 µM
- CC50 (LoVo-Dox): 13.9 µM
- IC (TGI) (LoVo-Dox): 3.77 µM
- GI50 (PANC-1): 1.37 µM
- CC50 (PANC-1): 11 µM
- IC (TGI) (PANC-1): 3.9 µM
- GI50 (SK-BR-3): 0.555 µM
- CC50 (SK-BR-3): 8.64 µM
- IC (TGI) (SK-BR-3): 1.06 µM
- GI50 (SK-MEL-28): 0.632 µM
- CC50 (SK-MEL-28): 5.65 µM
- IC (TGI) (SK-MEL-28): 1.77 µM
